# Measurements published in patent publication US20100204181A1, “N-HALOGENATED AMINO ACID FORMULATIONS COMPRISING PHOSPHINE OR AMINE OXIDES” (ALCON RESEARCH, LTD., priority 2009, published 2010).
# Columns and labels:
# [1] = tested on: S. aureus; assay: Viable cells per mL of S. aureus after treatment; format: cell-based; conditions: 5 minutes after treatment
# Description: As shown above in Table 1, there were only 24 viable cells per mL measured 5 minutes after treatment with 0.001% N,N-dichloro-2,2-dimethyltaurine formulated with acetate buffer at pH 4. In contrast, there were 27429 and 910 viable cells per mL 5 minutes after treatment with a 0.001% N,N-dichloro-2,2-dimethyltaurine formulation comprising no buffer and adipic acid buffer, respectively.
# [2] = Chemical stability of N,N-dichloro-2,2-dimethyltaurine solution with and without TBPO or TMAO; format: physicochemical
# Description: FIG. 1 is a graph showing the stability of a 0.1 w/v % solution of N,N-dichloro-2,2-dimethyltaurine with and without 0.01 w/v % TBPO; and
# FIG. 2 is a graph showing the stability of a 0.11 w/v % solution of N,N-dichloro-2,2-dimethyltaurine with and without 0.037 w/v % TMAO.
# The present inventors have discovered that the antimicrobial activity of N-halogenated amino acid compounds is enhanced in a formulation comprising a phosphine oxide or amine oxide compound. The enhancement is synergistic, as the phosphine oxide and amine oxide compounds tested have no intrinsic antimicrobial activity. Also the increase in antimicrobial activity of the N-halogenated amino acid compound in the presence of a phosphine oxide and/or amine oxide compound is likely not due to a chemical reaction that generates a new and more reactive chemical species.
compound,measurement,setting,value
"CC(C)(CS(=O)(=O)O)N(Cl)Cl [N,N-dichloro-2,2-dimethyltaurine]",viable cells per mL,[1]; 0.001% formulated with acetate buffer at pH 4,24 cells per mL
same,viable cells per mL,"[1]; 0.001% formulation, adipic acid buffer",910 cells per mL
same,viable cells per mL,"[1]; 0.001% formulation, no buffer",27429 cells per mL
same,chemical stability,[2]; 0.1 w/v % solution with and without 0.01 w/v % TBPO (FIG. 1),not affected
same,chemical stability,[2]; 0.11 w/v % solution with and without 0.037 w/v % TMAO (FIG. 2),not affected
